This is an account of results in patent publication US11434248B2, “PDE9 inhibitor and use thereof” (Nanjing TransThera Biosciences Co. Ltd., priority 2017, dated 2022).

Like-named read-outs stand apart in the source and are kept apart here.

The nature of data set [1]: Stability in human liver microsome.
Data set [2] can be described thus: Canine pharmacokinetic evaluation. Conditions: Beagle dogs, n = 3; for F %: dose iv/po 1/2 mg/kg; for AUCinf po / tz1/2 po (terminal elimination half-life): intragastric 2.0 mg/kg; for AUCinf iv / Cl_obs iv (clearance rate) / tz1/2 iv (terminal elimination half-life): intravenous bolus 1 mg/kg.
For data set [3] the following is noted: human.
The nature of data set [4]: Rat pharmacokinetic evaluation. Type of data set: in vivo, SD male rats. The note with it: SD rat; for tz1/2 po (terminal elimination half-life): intragastric 5.0 mg/kg; for tz1/2 iv (terminal elimination half-life): intravenous bolus 1 mg/kg. As for the experimental part:
Experimental Example 4: Rat Pharmacokinetic Evaluation of the Compounds of the Invention
Aim: The in vivo pharmacokinetic parameters of the compounds in SD male rats (purchased from Beijing Vital River Animal Technology Co., Ltd.) were evaluated and bioavailability of the compounds was examined.
Animal Administration and Sample Collection:
The solution of compounds 65, 90, 107, 158 was intragastrically administered to SD rat at a dose of 5.0 mg/kg.
The experimental compound 76 was dissolved in 30% DMF+30% PEG400+40% saline to prepare a solution. The solution of compound 76 was intragastrically administered to SD rat at a dose of 5.0 mg/kg.
The experimental compound 76 was dissolved in 30% DMF+30% PEG400+40% saline to prepare a solution.
The experimental compounds 84 and 96 were dissolved in 5% DMSO+10% PEG400+85% (28% HP-β-CD) saline to prepare a solution. The solution of compounds 84 and 96 was intragastrically administered to SD rat at a dose of 5.0 mg/kg.
The experimental compounds 84 and 96 were dissolved in 5% DMSO+10% PEG400+85% (28% HP-β-CD) saline to prepare a solution.
The animals were fixed. The tail was heated with a water bath at 10 min before each time point. About 100 μL of blood from tail vein was collected, and then placed in an anti-coagulation tube containing EDTA-K2 after collection. Blood samples were centrifuged at 8000 rpm at 4° C. for 6 min to obtain plasma samples.
The concentration of test sample was output using Analyst 1.6.1 from AB SCIEX.

In data set [5] the target is human PDE9 (Homo sapiens (Human), UniProt O76083). Conditions: background statement on conventional PDE inhibitors; cited from earlier work.
Chain of human PDE9 (O76083 whole entry): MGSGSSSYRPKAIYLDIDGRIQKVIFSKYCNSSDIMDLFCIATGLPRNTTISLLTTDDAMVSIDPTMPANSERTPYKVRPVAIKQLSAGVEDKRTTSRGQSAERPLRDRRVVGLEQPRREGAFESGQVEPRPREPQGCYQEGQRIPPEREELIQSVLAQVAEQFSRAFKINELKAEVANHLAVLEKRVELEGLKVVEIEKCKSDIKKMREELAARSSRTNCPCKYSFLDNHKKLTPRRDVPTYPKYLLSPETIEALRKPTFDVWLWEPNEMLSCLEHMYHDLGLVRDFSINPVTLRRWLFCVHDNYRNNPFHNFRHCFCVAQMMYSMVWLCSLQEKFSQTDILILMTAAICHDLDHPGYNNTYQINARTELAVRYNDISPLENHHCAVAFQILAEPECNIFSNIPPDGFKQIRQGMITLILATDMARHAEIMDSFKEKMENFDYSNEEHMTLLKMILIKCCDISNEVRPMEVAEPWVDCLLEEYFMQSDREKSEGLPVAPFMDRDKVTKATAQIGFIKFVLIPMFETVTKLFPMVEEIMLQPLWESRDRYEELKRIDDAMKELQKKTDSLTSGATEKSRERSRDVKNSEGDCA
[6] abbreviates: human liver microsome 0.5 mg protein/mL, compound 1 μM, 37° C.

As for `N#Cc1c(N2CC[C@@H](n3cccn3)C2)c2ccncc2[nH]c1=O` [Compound 19, (R)-4-(3-(1H-pyrazol-1-yl)pyrrolidin-1-yl)-2-oxo-1,2-dihydro-1,7-naphthyridin-3-carbonitrile], in data set [1] (setting [6]), the k is 0.191 min⁻¹.
On to `N#Cc1c(N2CCC3(CC2)CC3)c2ccncc2[nH]c1=O` [Compound 25, 2-oxo-4-(6-azaspiro[2.5]octane-6-yl)-1,2-dihydro-1,7-naphthyridin-3-carbonitrile], for which, in data set [2], the F % turned out to be 99.1%, the AUCinf po was 4.449 µg·h/mL, the “tz1/2 po (terminal elimination half-life)” value (shortened to “tz1/2 po”) stood at 9.45 h and the AUCinf iv is 2.244 µg·h/mL. Besides, in data set [2], the “Cl_obs iv (clearance rate)” value was determined as 0.47 L/h/kg and the “tz1/2 iv (terminal elimination half-life)” value (“tz1/2 iv” below) came out at 10.4 h. Besides, the k in data set [3] came to 0.0022 min⁻¹. For the same molecule, in data set [4], the “tz1/2 po” value amounted to 1.40 h and the “tz1/2 iv” value was determined as 0.51 h.
For `N#Cc1c(N2CCC3(CC2)CC3)c2cc(C(O)CO)ncc2[nH]c1=O` (centres unmarked) [Compound 32, 6-(1,2-dihydroxyethyl)-2-oxo-4-(6-azaspiro[2.5]octane-6-yl)-1,2-dihydro-1,7-naphthyridin-3-carbonitrile], in data set [1] (setting [6]), the T½ entry is on record as “→∞” and the k is -0.3760 min⁻¹.
In data set [3], `N#Cc1c(N2CCC3(CCC3)CC2)c2cc(N3CC(O)C3)ncc2[nH]c1=O` [Compound 51, 6-(3-hydroxyazetidin-1-yl)-2-oxo-4-(7-azaspiro[3.5]nonane-7-yl)-1,2-dihydro-1,7-naphthyridin-3-carbonitrile] displayed a k of 0.9418 min⁻¹.
In data set [3], `N#Cc1c(N2CCC3(CCC3)CC2)c2cc(N3CC(N)C3)ncc2[nH]c1=O` [Compound 53, 6-(3-aminoazetidin-1-yl)-2-oxo-4-(7-azaspiro[3.5]nonane-7-yl)-1,2-dihydro-1,7-naphthyridin-3-carbonitrile] had a k of 0.4821 min⁻¹.
Turning to `Cc1cc2c(N3CCC4(CCC4)CC3)c(C#N)c(=O)[nH]c2cn1` [Compound 65, 6-methyl-2-oxo-4-(7-azaspiro[3.5]nonane-7-yl)-1,2-dihydro-1,7-naphthyridin-3-carbonitrile], in data set [2], the F % came out at 25.5%, the AUCinf po was 0.543 µg·h/mL, the “tz1/2 po” value is 0.47 h and the AUCinf iv was 1.065 µg·h/mL. Also, in data set [2], the “Cl_obs iv (clearance rate)” value is reported as 0.94 L/h/kg and the “tz1/2 iv” value was determined as 0.49 h. For the same molecule, in data set [4], the “tz1/2 po” value is reported as 2.25 h and the “tz1/2 iv” value was determined as 1.47 h.
Turning to `COc1cc2c(N3CCC4(CCC4)CC3)c(C#N)c(=O)[nH]c2cn1` [Compound 66, 6-methoxy-2-oxo-4-(7-azaspiro[3.5]nonane-7-yl)-1,2-dihydro-1,7-naphthyridin-3-carbonitrile], in data set [1] (setting [6]), the T½ entry was “→^” and the k is -0.515 min⁻¹.
Regarding `CCc1cc2c(N3CCC4(CC3)CC4)c(C#N)c(=O)[nH]c2cn1` [Compound 76, 6-ethyl-2-oxo-4-(6-azaspiro[2.5]octane-6-yl)-1,2-dihydro-1,7-naphthyridin-3-carbonitrile], the k in data set [3] came to 0.0015 min⁻¹. For the same molecule, in data set [4], the “tz1/2 po” value is reported as 9.60 h and the “tz1/2 iv” value was found to be 0.89 h.
On to `N#Cc1c(N2CCC3(CC2)CC3)c2ncccc2[nH]c1=O` [Compound 80, 2-oxo-4-(6-azaspiro[2.5]octane-6-yl)-1,2-dihydro-1,5-naphthyridin-3-carbonitrile], for which, in data set [3], the k is 0.9877 min⁻¹.
Turning to `COC1(C)CCN(c2c(C#N)c(=O)[nH]c3cnccc23)CC1` [Compound 81, 4-(4-methoxy-4-methylpiperidin-1-yl)-2-oxo-1,2-dihydro-1,7-naphthyridin-3-carbonitrile], in data set [1] (setting [6]), the k is 0.0012 min⁻¹.
On to `CC(C)(O)c1cc2c(N3CCC4(CCC4)CC3)c(C#N)c(=O)[nH]c2cn1` [Compound 82, 6-(2-hydroxypropan-2-yl)-2-oxo-4-(7-azaspiro[3.5]nonane-7-yl)-1,2-dihydro-1,7-naphthyridin-3-carbonitrile], for which the k in data set [3] stood at 0.9760 min⁻¹.
Turning to `N#Cc1c(N2CCC3(CC2)CC3)c2cc(C(=O)O)ncc2[nH]c1=O` [Compound 83, 3-cyano-2-oxo-4-(6-azaspiro[2.5]octane-6-yl)-1,2-dihydro-1,7-naphthyridin-6-carboxylic acid], in data set [1] (setting [6]), the T½ result is recorded as “→∞” and the k was found to be 0.5421 min⁻¹.
For `CC(C)(O)c1cc2c(N3CCC4(CC3)CC4)c(C#N)c(=O)[nH]c2cn1` [Compound 84, 6-(2-hydroxypropan-2-yl)-2-oxo-4-(6-azaspiro[2.5]octane-6-yl)-1,2-dihydro-1,7-naphthyridin-3-carbonitrile], in data set [4], the “tz1/2 po” value came out at 3.24 h and the “tz1/2 iv” value worked out at 1.89 h.
Turning to `N#Cc1c(N2CCC3(CC2)CC3)c2cc(C(O)C3CC3)ncc2[nH]c1=O` (centres unmarked) [Compound 90, 6-(cyclopropyl (hydroxy)methyl)-2-oxo-4-(6-azaspiro[2.5]octane-6-yl)-1,2-dihydro-1,7-naphthyridin-3-carbonitrile], the k in data set [3] is 0.0037 min⁻¹. Moreover, in data set [4], the “tz1/2 po” value was found to be 4.49 h and the “tz1/2 iv” value was found to be 1.48 h.
With `CNC(=O)c1cc2c(N3CCC4(CC3)CC4)c(C#N)c(=O)[nH]c2cn1` [Compound 96, 3-cyano-N-methyl-2-oxo-4-(6-azaspiro[2.5]octane-6-yl)-1,2-dihydro-1,7-naphthyridin-6-formamide], the “tz1/2 iv” value in data set [4] came out at 0.30 h⁻¹.
In turn, `CCc1cc2c(N3CCC(C)(OC)CC3)c(C#N)c(=O)[nH]c2cn1` [Compound 107, 6-ethyl-4-(4-methoxy-4-methylpiperidin-1-yl)-2-oxo-1,2-dihydro-1,7-naphthyridin-3-carbonitrile] displayed a k in data set [1] (setting [6]) of 0.0023 min⁻¹.
As for `COC1(C)CCN(c2c(C#N)c(=O)[nH]c3cnc(C(C)(C)O)cc23)CC1` [Compound 109, 6-(2-hydroxypropan-2-yl)-4-(4-methoxy-4-methylpiperidin-1-yl)-2-oxo-1,2-dihydro-1,7-naphthyridine-3-carbonitrile], in data set [1] (setting [6]), the k was determined as 0.4444 min⁻¹.
Molecule `COCCOc1cc2c(N3CCC(C)(OC)CC3)c(C#N)c(=O)[nH]c2cn1` [Compound 145, 4-(4-methoxy-4-methylpiperidin-1-yl)-6-(2-methoxyethoxy)-2-oxo-1,2-dihydro-1,7-naphthyridin-3-carbonitrile] came in with a k in data set [1] (setting [6]) of 0.0019 min⁻¹.
In the case of `N#Cc1c(N2CCCCCC2)c2ccccc2[nH]c1=O` [Compound I-8, reference compound], in data set [1] (setting [6]), the CLint is reported as 0.1244 mL · min^−1 · mg^−1 proteins and the k came to 0.727 min⁻¹. In addition, the “Original drug residual % at 60 min” value in data set [1] (human liver microsome 0.5 mg protein/mL, compound 1 μM, β-NADPH 1 mM, 37° C., 60 min) is 5.19%. Besides, the half-life at 1 μM in data set [1] (human, liver microsomes) was determined as 0.186 h.
As to `CC(C)Cn1c(=O)n(C)c(=O)c2[nH]cnc21` [IBMX], in data set [5], the “inhibition activity on PDE9” value was “no or very low inhibition activity”.
Consider `CC(=O)Nc1ccc(-c2c[nH]c(=O)cn2)cc1` [SKF94120], for which the “inhibition activity on PDE9” value in data set [5] is “no or very low inhibition activity”.
`OCCN(CCO)c1nc(N2CCCCC2)c2nc(N(CCO)CCO)nc(N3CCCCC3)c2n1` [dipyridamole]: in data set [5], the “inhibition activity on PDE9” value is listed as “no or very low inhibition activity”.
For the molecule `COc1ccc(C2CNC(=O)C2)cc1OC1CCCC1` (centres unmarked) [rolipram], the “inhibition activity on PDE9” value in data set [5] is recorded as “no or very low inhibition activity”.
Turning to `CCOC(=O)C1=C[C@]2(CC)CCCN3CCc4c(n1c1ccccc41)[C@@H]32` [vinpocetine], the “inhibition activity on PDE9” value in data set [5] is recorded as “no or very low inhibition activity”.
